# Measured values: patent US20230167467A1, “METHODS AND COMPOSITIONS FOR THE PRODUCTION OF ISOBUTENE” (University of Alaska Anchorage, priority 2020, published 2023)
# Test system: Engineered strains of E. coli
# Format: cell-based
# [1] = after solvent exposure, vs positive control
smiles,measurement,setting,value
C=CC(C)CC (stereo not drawn) [3-methyl-1-pentene],"expression of acid resistance genes (gad, adi families)",,downregulated
same,"expression of chaperone proteins groLS, spy, and dnaJK",,highly upregulated
same,expression of dihydroxyacetone kinase genes dhaKLM,,upregulated
same,expression of galactitol metabolism genes gatABD,,upregulated
same,expression of heat shock proteins and chaperones hslJORUV,,increased
same,expression of ibpAB and clpAB (protein protection and repair),,increased
same,expression of marABC (multiple antibiotic resistance),,upregulated
same,expression of nitrate reductase genes narGHJKP,,upregulated
same,expression of phage shock genes pspABCDE,,highly upregulated
same,change in expression of gene adiA,[1],−3.34 ± 0.90
same,change in expression of gene adiC,[1],−4.45 ± 1.13
same,change in expression of gene adiY,[1],−4.27 ± 0.72
same,change in expression of gene bhsA,[1],4.75 ± 0.60
same,change in expression of gene bssR,[1],−0.03 ± 0.44
same,change in expression of gene bssS,[1],5.81 ± 0.84
same,change in expression of gene clpA,[1],3.44 ± 0.63
same,change in expression of gene clpB,[1],6.13 ± 0.69
same,change in expression of gene clpP,[1],2.17 ± 0.59
same,change in expression of gene coaA,[1],−1.75 ± 0.90
same,change in expression of gene coaD,[1],0.47 ± 0.93
same,change in expression of gene cspA,[1],−4.30 ± 0.58
same,change in expression of gene cspB,[1],−3.27 ± 1.33
same,change in expression of gene cspC,[1],−1.52 ± 0.93
same,change in expression of gene cspD,[1],3.11 ± 0.58
same,change in expression of gene cspE,[1],0.28 ± 0.63
same,change in expression of gene cspF,[1],−2.49 ± 1.08
same,change in expression of gene dhaK,[1],3.88 ± 0.59
same,change in expression of gene dhaL,[1],3.17 ± 0.63
same,change in expression of gene dnaJ,[1],6.43 ± 0.69
same,change in expression of gene dnaK,[1],4.74 ± 0.66
same,change in expression of gene fabA,[1],−0.23 ± 0.77
same,change in expression of gene fabB,[1],2.75 ± 0.66
same,change in expression of gene fabD,[1],−0.87 ± 0.53
same,change in expression of gene flgA,[1],−2.55 ± 1.64
same,change in expression of gene flgB,[1],−5.95 ± 1.74
same,change in expression of gene flgC,[1],−5.29 ± 2.06
same,change in expression of gene flgD,[1],−5.38 ± 2.00
same,change in expression of gene flgE,[1],−4.38 ± 1.24
same,change in expression of gene flgF,[1],−3.45 ± 1.66
same,change in expression of gene flgG,[1],−4.32 ± 1.57
same,change in expression of gene flgH,[1],−3.08 ± 1.80
same,change in expression of gene gabD,[1],−0.39 ± 1.37
same,change in expression of gene gabP,[1],−0.55 ± 1.33
same,change in expression of gene gabT,[1],−0.74 ± 1.35
same,change in expression of gene gadA,[1],−3.97 ± 0.90
same,change in expression of gene gadB,[1],−2.34 ± 0.85
same,change in expression of gene gadC,[1],−1.88 ± 0.83
same,change in expression of gene gadE,[1],−5.01 ± 0.68
same,change in expression of gene gadW,[1],−5.73 ± 1.17
same,change in expression of gene gadX,[1],−2.89 ± 0.58
same,change in expression of gene gadY,[1],−4.81 ± 0.90
same,change in expression of gene glpA,[1],7.04 ± 0.87
same,change in expression of gene glpB,[1],4.86 ± 0.63
same,change in expression of gene glpC,[1],5.64 ± 0.80
same,change in expression of gene groL,[1],4.37 ± 0.57
same,change in expression of gene groS,[1],4.22 ± 0.50
same,change in expression of gene hchA,[1],2.03 ± 0.62
same,change in expression of gene hslJ,[1],1.02 ± 0.67
same,change in expression of gene hslO,[1],3.42 ± 0.64
same,change in expression of gene hslR,[1],3.19 ± 0.66
same,change in expression of gene hslU,[1],3.91 ± 0.56
same,change in expression of gene hslV,[1],3.66 ± 0.61
same,change in expression of gene ibpA,[1],9.84 ± 1.21
same,change in expression of gene ibpB,[1],11.65 ± 1.50
same,change in expression of gene lhgO,[1],−1.08 ± 1.80
same,change in expression of gene lipA,[1],0.62 ± 0.61
same,change in expression of gene lipB,[1],1.26 ± 0.64
same,change in expression of gene narG,[1],0.67 ± 0.66
same,change in expression of gene narH,[1],−0.40 ± 0.65
same,change in expression of gene narI,[1],−2.41 ± 1.20
same,change in expression of gene narJ,[1],−0.67 ± 0.73
same,change in expression of gene narK,[1],0.15 ± 0.90
same,change in expression of gene potA,[1],−2.42 ± 0.82
same,change in expression of gene potB,[1],−1.56 ± 1.33
same,change in expression of gene potC,[1],−0.61 ± 1.22
same,change in expression of gene pspA,[1],10.50 ± 0.55
same,change in expression of gene pspB,[1],8.15 ± 0.68
same,change in expression of gene rpoA,[1],0.25 ± 0.44
same,change in expression of gene rpoB,[1],0.39 ± 0.40
same,change in expression of gene rpoC,[1],0.99 ± 0.39
same,change in expression of gene rpoD,[1],3.68 ± 0.70
same,change in expression of gene rpoE,[1],−2.04 ± 0.63
same,change in expression of gene rpoH,[1],0.68 ± 0.52
same,change in expression of gene rpoN,[1],−1.52 ± 0.50
same,change in expression of gene rpoS,[1],−0.17 ± 0.48
same,change in expression of gene rpoZ,[1],−1.17 ± 0.55
same,change in expression of gene spy,[1],3.35 ± 0.88
same,change in expression of gene tatA,[1],−1.50 ± 0.52
same,change in expression of gene tatB,[1],−1.06 ± 0.60
same,change in expression of gene tatC,[1],−1.33 ± 1.12
same,change in expression of gene tatD,[1],−2.62 ± 1.19
same,change in expression of gene tatE,[1],−0.18 ± 0.65
same,number of genes with significant changes in expression,"vs control, Bon Ferroni corrected p-value<0.05",540 genes
